How the values were obtained:
Assay in all cases: Kinobeads elution with test compound, mouse brain lysate, MS
Format in all cases: binding
Details in all cases: kinase released from kinobeads by specific elution
CaMK2g = CaMK2g (Mus musculus, UniProt Q923T9)
Excerpt: (§1) This example illustrates competitive elution of proteins bound to kinobeads with non-modified test compounds (see particularly the fourth aspect of the invention).
(§2) The kinobeads were contacted with mouse brain lysate under conditions that allow the binding of the proteins in the lysate to the ligands. The binding conditions were close to physiological by choosing suitable buffer conditions preserving the function of the proteins. After removing non-captured proteins through a gentle washing procedure the bound proteins were contacted with a test compound for protein elution.
(§3) Various test compounds (see section 2.7) were used to release bound proteins following these steps:
(§4) 1. Resuspend beads with bound proteins (section 2.4) in 1×DP buffer/0.2% NP-40 as 1:3 slurry (volume/volume). 2. Transfer 20 μl the 1:3 slurry into MoBiTech columns (equivalent to 5 μl of beads). 3. Place the column into an Eppendorf tube and centrifuge it for 15 seconds at 800 rpm at 4° C. Close columns with lower lid. 4. Add 10 μl elution buffer containing 1.0 mM of the test compound (concentration ranges of 0.1 to 1.0 mM are suitable). As a control use elution buffer containing 2% DMSO or 2% DMF dependent on the solvent used for dissolving the test compound. Close column with upper lid. 5. Incubate for 30 minutes at 4° C. in an Eppendorf incubator at 700 rpm. 6. […] To harvest the eluate centrifuge 2 minutes at 2.000 rpm in table top centrifuge at room temperature. The typical volume of the eluate is approximately 15 μl. 7. Add 5 μl 4× NuPAGE SDS Sample Buffer (Invitrogen, NP0007) containing 100 mM DTT (DTT has to be added just prior to use). 8. Incubate for 30 minutes at 50° C. 9. Add 1/10 volume of 200 mg/ml iodoacetamide, incubate for 30 min at room temperature, protect from light. This reaction leads to the alkylation of cysteines for mass spectrometry. 10. Before loading samples onto the gel, centrifuge samples for 5 minutes at 15.000 rpm in order to remove precipitates. 11. […] 2.6 Preparation of Stock Solutions used in this Protocol
(§5) Search criteria varied depending on which mass spectrometer was used for the analysis.

GSK3B = target: T1, GSK3B (Mus musculus, UniProt Q9WV60)
T1 construct: from tissue; host or cells: mouse brain
T1 sequence (Q9WV60 whole entry): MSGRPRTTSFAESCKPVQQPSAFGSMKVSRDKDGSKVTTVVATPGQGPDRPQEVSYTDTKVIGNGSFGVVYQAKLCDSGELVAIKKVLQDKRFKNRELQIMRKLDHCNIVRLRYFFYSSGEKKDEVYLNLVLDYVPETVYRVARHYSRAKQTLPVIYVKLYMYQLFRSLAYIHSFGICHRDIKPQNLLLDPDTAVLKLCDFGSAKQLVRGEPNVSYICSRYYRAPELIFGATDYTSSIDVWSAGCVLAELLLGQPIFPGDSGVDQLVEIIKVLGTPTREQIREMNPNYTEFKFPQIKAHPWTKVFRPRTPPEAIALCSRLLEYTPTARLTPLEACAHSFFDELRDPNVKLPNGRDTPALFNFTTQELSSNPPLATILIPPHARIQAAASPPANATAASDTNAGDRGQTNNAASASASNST
Excerpt: as §1, §2, §3, §4, §5

EphB1 = target: T2, EphB1 (Mus musculus, UniProt Q8CBF3)
T2 sequence (Q8CBF3 18-984): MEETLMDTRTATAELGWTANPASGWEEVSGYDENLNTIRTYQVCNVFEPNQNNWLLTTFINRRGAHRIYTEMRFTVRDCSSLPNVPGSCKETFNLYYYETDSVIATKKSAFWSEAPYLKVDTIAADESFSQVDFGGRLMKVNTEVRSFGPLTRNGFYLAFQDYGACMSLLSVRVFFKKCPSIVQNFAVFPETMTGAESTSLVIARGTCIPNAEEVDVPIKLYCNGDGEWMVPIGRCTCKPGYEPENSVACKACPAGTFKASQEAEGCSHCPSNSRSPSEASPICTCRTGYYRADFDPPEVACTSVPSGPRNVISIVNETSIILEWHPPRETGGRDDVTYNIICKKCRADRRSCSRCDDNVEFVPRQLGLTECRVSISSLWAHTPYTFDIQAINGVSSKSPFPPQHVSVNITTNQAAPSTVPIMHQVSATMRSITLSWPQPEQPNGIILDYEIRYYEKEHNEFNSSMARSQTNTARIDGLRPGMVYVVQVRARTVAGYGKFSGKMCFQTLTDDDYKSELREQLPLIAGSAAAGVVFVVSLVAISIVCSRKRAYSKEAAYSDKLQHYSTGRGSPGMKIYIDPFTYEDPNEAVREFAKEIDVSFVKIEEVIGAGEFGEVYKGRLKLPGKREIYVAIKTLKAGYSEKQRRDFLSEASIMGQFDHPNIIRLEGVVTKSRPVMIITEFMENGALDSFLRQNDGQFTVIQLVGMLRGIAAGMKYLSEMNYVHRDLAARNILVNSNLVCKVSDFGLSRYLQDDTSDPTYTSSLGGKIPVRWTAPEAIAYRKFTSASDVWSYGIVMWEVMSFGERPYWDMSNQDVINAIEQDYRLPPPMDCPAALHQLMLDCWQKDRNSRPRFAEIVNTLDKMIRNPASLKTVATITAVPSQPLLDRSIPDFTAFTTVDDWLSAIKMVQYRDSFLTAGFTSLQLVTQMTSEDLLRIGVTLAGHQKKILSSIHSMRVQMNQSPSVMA
How it was run: (§6)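 Competitive elution: mouse brain lysate bound to kinobeads, gentle wash, test compound 1.0 mM in elution buffer, 30 min, 4° C; solvent control 2% DMSO/DMF. Eluates → DTT reduction, iodoacetamide alkylation, SDS gel → MS identification.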

ARG = ARG (Mus musculus, UniProt Q4JIM5)
Chain of ARG (Q4JIM5 whole entry): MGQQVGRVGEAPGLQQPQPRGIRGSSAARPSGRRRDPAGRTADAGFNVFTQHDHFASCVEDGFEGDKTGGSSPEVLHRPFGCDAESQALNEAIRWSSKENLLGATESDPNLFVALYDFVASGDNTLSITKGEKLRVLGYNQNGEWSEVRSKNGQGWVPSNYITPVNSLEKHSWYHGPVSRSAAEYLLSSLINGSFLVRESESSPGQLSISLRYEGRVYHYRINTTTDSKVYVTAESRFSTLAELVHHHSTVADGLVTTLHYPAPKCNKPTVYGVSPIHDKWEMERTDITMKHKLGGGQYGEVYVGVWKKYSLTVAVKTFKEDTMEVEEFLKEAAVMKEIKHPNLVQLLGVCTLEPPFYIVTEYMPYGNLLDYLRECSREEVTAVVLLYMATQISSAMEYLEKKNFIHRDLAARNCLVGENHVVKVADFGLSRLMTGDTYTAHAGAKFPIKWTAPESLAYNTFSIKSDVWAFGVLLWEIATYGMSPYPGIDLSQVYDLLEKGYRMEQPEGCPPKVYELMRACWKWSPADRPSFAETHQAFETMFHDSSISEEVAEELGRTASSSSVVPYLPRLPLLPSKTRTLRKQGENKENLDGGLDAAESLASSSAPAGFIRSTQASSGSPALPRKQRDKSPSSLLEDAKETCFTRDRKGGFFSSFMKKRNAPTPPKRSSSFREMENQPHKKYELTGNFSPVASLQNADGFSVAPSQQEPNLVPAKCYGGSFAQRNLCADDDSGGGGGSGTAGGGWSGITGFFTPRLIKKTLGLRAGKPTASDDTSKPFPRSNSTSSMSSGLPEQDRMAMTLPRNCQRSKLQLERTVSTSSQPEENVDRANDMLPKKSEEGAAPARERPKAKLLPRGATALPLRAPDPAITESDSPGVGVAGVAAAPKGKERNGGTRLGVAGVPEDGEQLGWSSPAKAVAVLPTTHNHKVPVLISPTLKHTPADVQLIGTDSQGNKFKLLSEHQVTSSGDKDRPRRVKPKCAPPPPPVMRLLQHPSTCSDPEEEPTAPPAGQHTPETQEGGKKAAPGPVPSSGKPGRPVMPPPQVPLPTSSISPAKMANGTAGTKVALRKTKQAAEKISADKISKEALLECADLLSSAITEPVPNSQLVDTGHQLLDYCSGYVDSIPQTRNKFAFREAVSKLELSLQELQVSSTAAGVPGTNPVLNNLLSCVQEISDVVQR
How it was run: as §6

p38a = target: T3, p38a (Mus musculus, UniProt P47811)
T3 construct: from tissue; host or cells: mouse brain
T3 sequence (P47811 whole entry): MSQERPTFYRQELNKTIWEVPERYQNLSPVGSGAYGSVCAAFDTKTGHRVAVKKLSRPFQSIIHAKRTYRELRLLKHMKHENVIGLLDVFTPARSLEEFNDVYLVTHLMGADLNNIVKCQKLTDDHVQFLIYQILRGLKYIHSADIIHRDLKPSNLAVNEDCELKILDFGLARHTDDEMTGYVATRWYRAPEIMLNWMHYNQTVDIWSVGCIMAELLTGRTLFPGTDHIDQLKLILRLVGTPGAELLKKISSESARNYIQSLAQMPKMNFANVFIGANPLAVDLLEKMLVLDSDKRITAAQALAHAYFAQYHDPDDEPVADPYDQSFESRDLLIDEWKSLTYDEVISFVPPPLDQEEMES
How it was run: as §6

p38b = target: T4, p38b (Mus musculus, UniProt Q9WUI1)
T4 construct: from tissue; host or cells: mouse brain
T4 sequence (Q9WUI1 whole entry): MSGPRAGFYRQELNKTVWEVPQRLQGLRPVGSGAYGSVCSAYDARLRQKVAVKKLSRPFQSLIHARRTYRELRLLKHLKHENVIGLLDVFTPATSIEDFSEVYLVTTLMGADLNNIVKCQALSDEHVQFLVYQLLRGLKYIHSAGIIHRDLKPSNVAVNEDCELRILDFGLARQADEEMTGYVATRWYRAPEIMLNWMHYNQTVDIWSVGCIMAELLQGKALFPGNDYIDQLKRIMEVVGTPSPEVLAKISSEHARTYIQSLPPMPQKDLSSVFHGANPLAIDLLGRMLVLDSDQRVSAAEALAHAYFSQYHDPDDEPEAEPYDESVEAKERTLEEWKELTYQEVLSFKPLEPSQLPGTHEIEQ
How it was run: as §6

Chain of CaMK2g (Q923T9 whole entry): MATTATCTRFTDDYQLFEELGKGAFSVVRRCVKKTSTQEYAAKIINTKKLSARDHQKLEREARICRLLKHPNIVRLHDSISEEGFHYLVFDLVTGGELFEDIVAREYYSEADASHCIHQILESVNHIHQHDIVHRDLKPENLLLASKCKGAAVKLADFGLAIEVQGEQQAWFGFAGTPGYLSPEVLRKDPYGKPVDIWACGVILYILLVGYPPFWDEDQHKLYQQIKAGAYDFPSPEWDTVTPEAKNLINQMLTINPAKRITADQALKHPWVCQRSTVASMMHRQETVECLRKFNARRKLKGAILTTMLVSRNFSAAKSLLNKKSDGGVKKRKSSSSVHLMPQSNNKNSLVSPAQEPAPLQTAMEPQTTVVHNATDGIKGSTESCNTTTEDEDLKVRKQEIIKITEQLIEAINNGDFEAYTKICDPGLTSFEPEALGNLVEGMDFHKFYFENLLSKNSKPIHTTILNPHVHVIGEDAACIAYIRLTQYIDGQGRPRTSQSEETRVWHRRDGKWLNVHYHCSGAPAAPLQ

Row | SMILES | number of identified peptides, CaMK2g (CaMK2g) | number of identified peptides, GSK3B (GSK3B) | mass spectrometry score, EphB1 (EphB1) | number of identified peptides, EphB1 (EphB1) | mass spectrometry score, GSK3B (GSK3B) | mass spectrometry score, CaMK2g (CaMK2g) | mass spectrometry score, ARG (ARG) | number of identified peptides, ARG (ARG) | mass spectrometry score, p38a (p38a) | number of identified peptides, p38a (p38a) | mass spectrometry score, p38b (p38b) | number of identified peptides, p38b (p38b)
1 | CNC1CC2OC(C)(C1OC)n1c3ccccc3c3c4c(c5c6ccccc6n2c5c31)C(=O)NC4 (stereo not drawn) [CZC9280] | 25 | 59 |  |  |  |  |  |  |  |  |  | 
2 | CC(C)[C@H](CO)Nc1nc(Nc2ccc(C(=O)O)c(Cl)c2)c2ncn(C(C)C)c2n1 [Purvalanol B, reference compound] |  | 30 | 366 | 10 | 1037 |  |  |  |  |  |  | 
3 | NCc1ccc(Nc2ncc(F)c(Nc3ccccc3)n2)cc1 [CZC00008004] | 27 | 26 |  |  | 881 | 527 |  |  |  |  |  | 
4 | Cn1c(=O)c(-c2c(Cl)cccc2Cl)cc2cnc(Nc3ccc(CN)cc3)cc21 [CZC7324] |  | 19 |  |  | 789 |  | 59 | 2 | 127 | 6 | 60 | 1
5 | CCCCCCCCCCCCOS(=O)(=O)[O-].[Na+] [SDS] | 42 | 72 | 180 | 10 | 763 | 379 | 452 | 28 | 104 | 7 | 95 | 3

Source: US20090238808A1, “Process for the identification of novel enzyme interacting compounds” (priority 2005, published 2009)
